Measurements from patent US6635628B2, “Methods of administering camptothecin compounds for the treatment of cancer with reduced side effects” (The George Washington University, priority 1998, dated 2003).
“Also recorded” adds a separate entry of the source. Like-named read-outs stand apart in the source and are kept apart here. Marks after values point to notes of the source that are not given here.

What was measured:
[1] = system: intestinal cells from whole small-intestine; assay: Uptake of 14C-labeled CPT-11 and SN-38 by intestinal cells, regions combined or not distinguished (TCA, pH, bicarbonate effects); conditions: for uptake rate of the lactone compared with the carboxylate form: cells from both intestinal regions; for saturability of the uptake (predominant component): SN-38 concentrations lower than 2 μM
Description: By adding the drugs to Hank's solution containing intestinal cells from whole small-intestine, uptake studies were performed.
(§1) Intestinal cells were isolated as previously described (28, 29). Briefly, male hamsters were anesthetized with sodium pentobarbital (Nembutol 70 mg/kg body weight). The entire intestine was removed. The intestinal lumen was washed with 37° C. Hank's solution. Sacs of the ileum (12.5 cm from cecum) and jejunum (remaining small intestine) were rinsed, as well as the intestinal sacs of the anal site of small intestine (12.5 cm from cecum) and oral site (the other small intestine). The sacs were rinsed with oxygenated buffer solution containing sodium citrate (96 mM NaCl, 1.5 mM KCl, 5.6 mM KH2PO4, 27 mM sodium citrate, pH 7.3), and incubated for 10 min in the same buffer at 37° C. The sacs were then emptied, filled with oxygenated buffer solution containing EDTA (140 mM NaCl, 16 mM Na2HPO4, 2 mM EDTA, 0.5 mM dithiothreitol, pH 7.3), incubated for 10 min at 37° C. Then each sac was placed onto a petri dish and gently vortexed for 1 min. The buffer containing intestinal cells was recovered in 50 mL of Hanks' solution, washed twice and adjusted at 10^6 cells/ml in Hanks' medium (cellular stock solution containing 0.5% bovine serum albumin, pH 7.4).
(§2) The cellular suspension of 0.95 ml was incubated for 15 min in a 37° C. water bath with stirring. Uptake was started by the addition of 0.05 ml PBS (at pH 3 or 9) containing labeled SN-38 or CPT-11 at 37° C. At various time intervals, 100 μL, sample aliquots were diluted into 3 mL of Hank's medium at 4° C. to stop the uptake. The stop solution containing the cells was filtered through a glass microfiber filter (Glass Fiber Filter Circles G4, Fisherbrand, Pa.) under vacuum (20 psi). The cells were washed once with 5 mL of 0.5% bovine serum albumin-containing Hanks' medium (4° C.) and once with 20 mL of Hanks' solution (4° C.). The filters were placed in a vial containing 4 mL of scintillation liquid (Ultra Gold, Packard, Conn.) and the radioactivity was counted in a β scintillation counter (LS3801, Beckman, Md.).
(§3) The effect of the metabolic inhibitor, 2,4 dinitrophenol (1 mM), was studied by adding this agent to the cells 3 min prior to either ^14C-CPT-11 or ^14C-SN-38 (2 μM). The effect of 20 mM of taurocholic acid (TCA) on the uptake of both CPT-11 and SN-38 was investigated following overnight incubation of ^14C-CPT-11 (20 μM) and ^14C-SN-38 (2 μM) in Hank's solution, at pH 7.4 and in the presence and absence of TCA. The effect of 200 μM of DNP-SG or SN-38-Glu was also studied by adding these agents to the cell preparation 7 min prior to either ^14C-CPT-11 (20 μM) and ^14C-SN-38 (2 μM).
The effect of physiologic pH on the initial intestinal uptake rate of CPT-11 and SN-38 was investigated following overnight incubation of ^14C-CPT-11 (20 μM) and ^14C-SN-38 (2 μM) in phosphate buffered saline at pH 6.2, 6.8, 7.4 and 8, respectively.
(§4) The initial rate of uptake of CPT-11 or SN-38 was derived from the linear regression analysis of the respective regression line obtained from the plot of the uptake as a function of time. The initial rates of uptake were plotted against the corresponding concentration. The data were fitted by least-squares nonlinear regression analysis (SigmaStat, Jandel Scientific, CA), using the equation V=(Vmax·S)/(Km+S)+Kd·S where V represents the initial rate of uptake. Vmax is the maximum rate of uptake, Km is the apparent Michaelis constant, Kd is the rate of diffusion and S is the concentration of CPT-11 or SN-38.

[2] = format: physicochemical; conditions: 1,000-molecular weight cut-off membrane
Text: Monomers were separated from micellar aggregates by ultrafiltration through a 1000-molecular weight cut-off membrane (YM1) as described in Materials and Methods. Values are the monomeric forms of the indicated metabolites, expressed as a percentage (%) of the concentration of the initial solution before ultrafiltration. Comparison between TCA and control was estimated by Mann-Whitney test. […] Abbreviations used: CPT lactone (CPT lact.); CPT carboxylate (CPT carb.); SN-38 lactone (SN lact.); and SN-38 carboxylate (SN carb.).

[3] = system: ileal cells; format: in vitro ADME, hamster
Description: (§5) The other drugs were dissolved in distilled water. […] DNP-SG was made from glutathione and CDNB (1-chloro-2,4-dinitro benzene) chemically. All other reagents were of analytical grade. Adult male Golden Syrian hamsters (6-8 weeks age), whose model presents a bile acid profile similar to that observed in human (28), were used.
as §1, §2, §3, §4

[4] = system: isolated intestinal cells from jejunum; format: in vitro ADME, hamster
Description: as §5, §1, §2, §3, §4

[5] = bile acid micelles; cited from earlier work
[6] = bile of two men treated by cisplatin who received CPT-11 intravenously; cited from earlier work
[7] = cited from earlier work
[8] = cited from earlier work; remark: listed apart in the source
[9] = CPT-11 metabolite formed by hepatic cytochrome P-450 3A; cited from earlier work
[10] = 20 μM 14C-CPT-11, 2 μM 14C-SN-38
[11] = % of control, inhibitor 1 mM added 3 min before [14C]CPT-11 (20 μM), n=5
[12] = % of control, inhibitor 1 mM added 3 min before [14C]SN-38 (2 μM), n=5
[13] = % of control, inhibitor 200 μM added 7 min before [14C]CPT-11 (20 μM), n=5
[14] = % of control, inhibitor 200 μM added 7 min before [14C]SN-38 (2 μM), n=5

## CCc1c2c(nc3ccc(O)cc13)-c1cc3c(c(=O)n1C2)COC(=O)[C@]3(O)CC [SN-38 lactone]
[1]
  transport mechanism in intestinal cells: passively transported
[1]; [10]
  uptake rate of the lactone compared with the carboxylate form: more rapidly taken up; also recorded: several times greater
[1]; jejunal and ileal cells
  saturability of the uptake (predominant component): mostly non-saturable
[2]
  effect of TCA on % monomer concentration / association to TCA micelles: significantly decreased

## N[C@@H](CCC(=O)N[C@@H](CSc1ccc([N+](=O)[O-])cc1[N+](=O)[O-])C(=O)NCC(=O)O)C(=O)O [DNP-SG, 2,4-dinitrophenyl-S-glutathione]
[3]
  initial uptake rate of CPT-11 carboxylate, ileum: 105.8%
  initial uptake rate of SN-38 carboxylate, ileum: 28.5* %
[4]
  initial uptake rate of CPT-11 carboxylate, jejunum: 103.2%
  initial uptake rate of CPT-11 lactone, jejunum: 105.4%
  initial uptake rate of SN-38 carboxylate, jejunum: 32.0* %
  initial uptake rate of SN-38 lactone, jejunum: 78.8%
[1]
  effect of the added agent on the uptake rate of SN-38 lactone: not significantly affected
[1]; intestinal region not given
  effect of the added agent on the uptake of CPT-11 carboxylate: remained unchanged
  effect of the added agent on the uptake rate of CPT-11 lactone: not significantly affected

## CCc1c2c(nc3ccc(OC(=O)N4CCC(N5CCCCC5)CC4)cc13)-c1cc([C@@](O)(CC)C(=O)O)c(CO)c(=O)n1C2 [CPT-11 carboxylate]
[3]; ileum, fit V=(Vmax·S)/(Km+S)+Kd·S, mean, read-out: Km (apparent Michaelis constant of uptake)
  Km: 50.5 µM
[3]; ileum, nonlinear regression fit, mean
  Vmax (maximum rate of uptake): 157.3 p mol · 10 ^6 cells^−1 · min^−1
[4]; jejunum, fit V=(Vmax·S)/(Km+S)+Kd·S, mean, read-out: Km (apparent Michaelis constant of uptake)
  Km: 51.3 µM
[4]; jejunum, nonlinear regression fit, mean
  Vmax (maximum rate of uptake): 146.9 p mol · 10 ^6 cells^−1 · min^−1
[1]
  transport mechanism in intestinal cells: actively absorbed

## CC(C)CCC[C@@H](C)[C@H]1CC[C@H]2[C@@H]3CC=C4C[C@@H](O)CC[C@]4(C)[C@H]3CC[C@]12C [cholesterol]
[5]
  percentage of the monomer concentration (comparison values): 3%

## O=[N+]([O-])c1ccc(O)c([N+](=O)[O-])c1 [Dinitrophenol, 2,4-dinitrophenol]
[3]; [11]
  initial uptake rate of CPT-11 carboxylate, ileum: 29.2%
  initial uptake rate of CPT-11 lactone, ileum: 105.5%
[3]; [12]
  initial uptake rate of SN-38 carboxylate, ileum: 30.8%
  initial uptake rate of SN-38 lactone, ileum: 134.9%
[4]; [11]
  initial uptake rate of CPT-11 carboxylate, jejunum: 22.6%
  initial uptake rate of CPT-11 lactone, jejunum: 94.1%
[4]; [12]
  initial uptake rate of SN-38 carboxylate, jejunum: 25.5%
  initial uptake rate of SN-38 lactone, jejunum: 96.1%
[1]; intestinal region not given
  effect of the added agent on the uptake rate of CPT-11 lactone: not significantly affected
  effect of the added agent on the uptake rate of SN-38 lactone: not significantly affected

## CCc1c2c(nc3ccc(O[C@@H]4O[C@H](C(=O)O)[C@@H](O)[C@H](O)[C@H]4O)cc13)-c1cc3c(c(=O)n1C2)COC(=O)[C@]3(O)CC [SN38-Glu, SN-38 β-glucuronide]
[3]; [13]
  initial uptake rate of CPT-11 carboxylate, ileum: 93.9%
[3]; [14]
  initial uptake rate of SN-38 carboxylate, ileum: 28.9* %
[4]; [13]
  initial uptake rate of CPT-11 carboxylate, jejunum: 108.9%
  initial uptake rate of CPT-11 lactone, jejunum: 88.9%
[4]; [14]
  initial uptake rate of SN-38 carboxylate, jejunum: 40.1* %
  initial uptake rate of SN-38 lactone, jejunum: 54.3%
[1]; intestinal region not given
  effect of the added agent on the uptake of CPT-11 carboxylate: remained unchanged
  effect of the added agent on the uptake rate of CPT-11 lactone: not significantly affected
  effect of the added agent on the uptake rate of SN-38 lactone: not significantly affected
[6]
  share of the biliary content: 7.3-18.9%

## CCc1c2c(nc3ccc(OC(=O)N4CCC(N5CCCCC5)CC4)cc13)-c1cc3c(c(=O)n1C2)COC(=O)[C@]3(O)CC.Cl [CPT-11, (4S)-4,11-diethyl-4-hydroxy-9-[(4-piperidinopiperidino)carbonyloxy]1H-pyrano [3′,4′:6,7] indolizino[1,2-b]quinoline-3,14(4 h, 12H)dione hydrochloride]
[1]
  initial uptake rate at acidic pH (pH 6.2 and 6.8) versus neutral or alkaline pH (pH 7.4 and 8): several times greater
[1]; cells from jejunum and ileum combined, 14C-CPT-11 20 μM, 14C-SN-38 2 μM, pH 7.4, mean±SD, n=5
  initial uptake rate in the presence of 20 mM TCA: 48.5±10.8 % of control without TCA
[1]; pH 6.2 to 8, 20 μM 14C-CPT-11, 2 μM 14C-SN-38
  decrease of the uptake rate at a pH greater than 6.8: around 65%
[1]; pH adjusted to greater than 7
  uptake when HEPES of the Hank's buffer was replaced by sodium bicarbonate: decreased
[7]
  share in lactone form at pH 7.4: 13%
[8]; before adoption of loperimide therapy
  incidence of grade 4 diarrhea: 17%
[8]; following adoption of an aggressive loperimide therapy
  incidence of grade 4 diarrhea: 5%
[6]
  share of the biliary content: 75.6-91.9%

## CCc1c2c(nc3ccc(OC(=O)N4CCC(N5CCCCC5)CC4)cc13)-c1cc3c(c(=O)n1C2)COC(=O)[C@]3(O)CC [CPT-11 lactone]
[1]
  transport mechanism in intestinal cells: passively transported
[1]; [10]
  uptake rate of the lactone compared with the carboxylate form: more rapidly taken up; also recorded: several times greater
[1]; jejunal and ileal cells
  Kd lower than that of SN-38 lactone: 1.8-2.5 fold
  saturability of the uptake (predominant component): non-saturable
[2]
  effect of TCA on % monomer concentration / association to TCA micelles: significantly decreased

## CCCCCCCC/C=C\CCCCCCCC(=O)O [oleic acid]
[5]
  percentage of the monomer concentration (comparison values): 2.3%

## CCc1c2c(nc3ccc(OC(=O)N4CCC(NCCCCC(=O)O)CC4)cc13)-c1cc3c(c(=O)n1C2)COC(=O)C3(O)CC (stereo not drawn) [7-ethyl-10-[4-N-(5-aminopentanoic acid)-1-piperidino]carbonyloxycamptothecin]
[9]
  antitumor activity weaker than SN-38: 500 fold
